This test deals with T1, vitamin D binding protein (Homo sapiens, UniProt P02774).
T1 sequence (P02774 17-474): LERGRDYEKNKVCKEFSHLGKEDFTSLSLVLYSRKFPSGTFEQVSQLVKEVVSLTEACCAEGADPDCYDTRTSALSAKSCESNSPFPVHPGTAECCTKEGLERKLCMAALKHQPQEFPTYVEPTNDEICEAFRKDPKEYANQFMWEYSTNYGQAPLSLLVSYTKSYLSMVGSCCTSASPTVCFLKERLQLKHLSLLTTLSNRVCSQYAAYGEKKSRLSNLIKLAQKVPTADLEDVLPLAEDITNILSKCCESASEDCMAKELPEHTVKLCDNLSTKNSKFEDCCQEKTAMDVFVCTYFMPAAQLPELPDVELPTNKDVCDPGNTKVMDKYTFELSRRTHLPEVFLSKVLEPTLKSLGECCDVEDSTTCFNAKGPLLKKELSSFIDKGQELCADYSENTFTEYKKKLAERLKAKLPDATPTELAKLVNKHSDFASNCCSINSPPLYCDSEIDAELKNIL
As to the kind of experiment: BIACORE assessment of release of vitamin D binding protein from immobilised biotinylated 25-hydroxyvitamin D3. Particulars: BIACORE streptavidin chip saturated with biotinylated 25-hydroxyvitamin D3 and vitamin D binding protein; release monitored for 3 min. From the text:
For this assessment a streptavidin-coated BIACORE chip is used. This streptavidin-chip is then saturated with a biotinylated 25-hydroxyvitamin D3 and thereafter with vitamin D binding protein. […] The BIACORE system is used to assess whether a reagent considered to be a potential candidate for releasing vitamin D from vitamin D binding protein will be efficient in releasing of vitamin D binding protein to a vitamin D metabolite. A sensor chip coated with streptavidin (Sensor Chip SA, BIACORE AB, BR-1000-32) is used for immobilization of a biotinylated vitamin D metabolite of interest. The assessment is best performed by use of the vitamin D metabolite 25OH vitamin D3. The sensor chip is first incubated with a saturating concentration of biotinylated 25-hydroxyvitamin D3, Then the chip is loaded with a saturating amount of vitamin D binding protein. Then the vitamin D binding protein saturated chip is incubated with a sodium chloride solution one the one hand and a candidate vitamin D releasing reagent in various concentrations on the other hand. The release of vitamin D binding protein is monitored for 3 min. A candidate vitamin D releasing reagent causing the release of at least […] vitamin D binding protein in the above system is appropriate to meet the minimal requirements for a vitamin D releasing reagent used in the detection of a vitamin D metabolite in a sample of serum or plasma 25-hydroxyvitamin D3. Between each run the 25-hydroxyvitamin D3-coated SA-chip is regenerated by washing it with 10 mM Gly/HCl pH 1.7 for 1 min. As non-specific control a reference flow cell coated with biotin on the same chip was used. The data of the reference flow cell are subtracted from those of the biospecific flow cell. Thus specific data free of non-specific effects are obtained.
On the technique in general: In SPR one partner is held on a chip, and binding of the other changes the refractive index at the surface.
For the compound `CCCC[n+]1cccc(C)c1.[Cl-]` [BMP-Cl, 1-Butyl-3-methyl-pyridinium-chloride], the “Concentration of releasing reagent required for release off >95% vitamin D binding protein from 25OH-vitamin D3” value came to 12 % volume/volume.

On to `CCCCCCCC[N+]1(C)CCCC1.[Cl-]` [MOP-Cl, 1-Methyl-1-octyl-pyrrolidinium-chloride], for which the “Concentration of releasing reagent required for release off >95% vitamin D binding protein from 25OH-vitamin D3” value was determined as 3 % volume/volume.

As to `CCCC[n+]1cccc(C)c1.N#C[S-]` [BMP-SCN, 1-Butyl-3-methyl-pyridinium-thiocyanate], the “Concentration of releasing reagent required for release off >95% vitamin D binding protein from 25OH-vitamin D3” value is listed as 6 % volume/volume. As for `CCCCCC[n+]1ccccc1.[Cl-]` [HP-Cl, 1-Hexylpyridinium-chloride], the figure is 6 % volume/volume; as for `CCCCCCCC[n+]1ccccc1.[Cl-]` [NOP-Cl, N-Octylpyridinium-chloride], 3 % volume/volume; as for `CCCCn1cc[n+](C)c1.F[B-](F)(F)F` [BMI-TFB, 1-Butyl-3-methyl-imidazolium-tetrafluoroborate], 8 % volume/volume. As for “1-Butyl-3-methyl-imidazolium-octylsulfate [BMI-OSO4]”, the figure is 0.5 % volume/volume; as for `CCCC[n+]1ccc(C)cc1.F[B-](F)(F)F` [BMP-TFB, 1-Butyl-4-methyl-pyridinium-tetrafluoroborate], 6 % volume/volume.

The record behind these values is patent US8003400B2, “Measurement of vitamin D” (Roche Diagnostics Operations, Inc., priority 2006, dated 2011).
